The results in this text go back to patent US20250352615A1, “COMPOSITIONS AND METHODS FOR THE MODULATION OF PIEZO1 AND TRPV4” (Duke University, priority 2021, published 2025).

Bounds are passed on as bounds.

One data set has as its target T1, TRPV4 (Mus musculus, UniProt Q9EPK8).
T1 construct: endogenous in cells; host or cells: freshly isolated mouse pancreatic acini (C57BL/6J WT)
The data set is described as follows: Calcium imaging of TRPV4-mediated [Ca2+]i in pancreatic acini (agonists, shear stress, Yoda1 sustained phase). The conditions noted are these: for agonist effect on [Ca2+]i: GSK101 50 nM, arachidonic acid 20 μM, 5′,6′-EET 5 μM. The format is cell-based. The procedure: (§1) Mouse pancreatic acini were isolated using a standard collagenase digestion protocol. Isolated acini were plated on a thin-layered, Matrigel-coated, glass-bottom, culture plate (MatTek, P35G-0-14-C). Freshly isolated acini were used in each experiment.
Parallel-plate fluid flow chambers (μ-Slide I 0.4 Luer, and μ-Slide I 0.2 Luer from Ibidi GmbH) were used to measure the shear stress-induced changes in intracellular calcium, mitochondrial depolarization, and trypsin activation. The constant flow rate with shear stress (T) was determined as follows: τ=η×[…] φ for μ-Slide I 0.4 Luer and τ=η×330.4 φ for μ-Slide I 0.2 Luer, where η=viscosity of the medium and φ=flow rate (according to the manufacturer's instructions, Ibidi).
(§2) Calcium imaging in pancreatic acini was performed as previously described. The chemicals used in calcium imaging experiments included the following: Yoda1 (Tocris; 5586), GsMTx4 (Abcam; ab141871), 5′,6′-EET (Santa Cruz Biotechnology; sc-221066), AA (Millipore Sigma; A3611), HC067047 (Tocris; 4100), GSK1016790A (Millipore Sigma; G0798), RN1734 (Tocris; 3746), AACOCF3 (Tocris; 1462), YM26734 (Tocris; 2522), GF109203X (Tocris; 0741), and CCK8 (Sigma-Aldrich).

The target of data set [1] is T2, Piezo1 (Mus musculus, UniProt E2JF22).
T2 construct: endogenous in cells; host or cells: freshly isolated mouse pancreatic acini (WT = Piezo1 fl/fl on a C57BL/6J background)
The data set is described as follows: Calcium imaging of Yoda1 (Piezo1)-mediated [Ca2+]i in pancreatic acini. The class given is cell-based. The conditions noted are these: for effect of protein kinase A and C blockers on Yoda1-induced sustained calcium elevation: KT5720 5 μM, GF109203X 20 μM; for effect on Yoda1-induced sustained [Ca2+]i elevation, YM26734 and AACOCF3 together: YM26734 10 μM + AACOCF3 30 μM, preincubated 10 minutes. The procedure: as §1, §2

Data set [2] addresses T2, Piezo1. The data set is described as follows: Calcium imaging of Piezo1-mediated [Ca2+]i in mouse PSCs. The format is cell-based. The conditions noted are these: for effect on Yoda1-mediated sustained [Ca2+]i elevation, YM26734 and AACOCF3 together: YM26734 10 μM + AACOCF3 30 μM, Yoda1 25 μM, PSCs from WT mice. The procedure:
Mouse and human PSCs were isolated using collagenase digestion. Modified Krebs Henseleit Buffer (KHB) solution (100 mL) was prepared as previously described by Romac et al., Nat. Commun. 9(1):1715 (2018). Pancreatic tissue was digested with 2 mg of collagenase NB 8 (SERVA, catalog 17456) dissolved in 10 mL of modified KHB solution containing 1 mg soybean trypsin inhibitor (SBTI 1-S; Millipore Sigma, catalog T9003) and 20 mg BSA (Thermo Fisher Scientific; BP1600-100). Digestion solution (5 mL) was used to inflate the pancreas. Pancreas with 5 mL of digestion solution was incubated in a shaking water bath for 10 minutes at 37° C. The solution was then discarded. The pancreas tissue was cut into small pieces and digested with fresh 5 mL digestion buffer. Tissue was incubated in a shaking water bath for 40 minutes at 37° C. The cells were then separated from tissue by pipetting up-down with a 10 mL pipette and passed sequentially through a 70 μm and a 40 μm cell strainer. The filtrate was centrifuged at 150×g for 3 minutes at room temperature. The cells were washed with 10 mL Leibovitz's media (Thermo Fisher Scientific, catalog 11415-064), passed through a 20 μm filter, and centrifuged at 80×g for 3 minutes at room temperature. The supernate was removed, and isolated stellate cells were plated on a thin-layered Matrigel-coated glass bottom culture plate (MatTek, P35G-0-14-C). Before plating the cells, Matrigel solution (Corning, catalog 354234) at a ratio of 1.5:100 DMEM/F12 (Thermo Fisher Scientific, catalog 11330-032) was poured onto the culture plate and incubated for 2 hr at 37° C. to form a thin layer of Matrigel coating. Matrigel mixture was removed, and the plate was washed with PBS before cells were plated. Cell culture media, DMEM/F12 with 5% FBS was used for mouse stellate cells. Fresh, human pancreatic tissue was digested with collagenase as described above with modifications. Collagenase (2.5 mg) in 10 mL of modified KHB solution was used for digestion. The digested tissues were filtered through a 100 μm cell strainer. The cells were cultured with DMEM/F12 with 10% FBS in a Matrigel-coated plate. After 24 hr, the cell media was replaced with fresh media to remove unattached and dead cells. After 2 days, cells were immunostained for GFAP and used for experiments. Perinuclear fat droplets were stained with BODIPY 493/503 (4,4-Difluoro-1,3,5,7,8-Pentamethyl-4-Bora-3a,4a-Diaza-s-Indacene; Invitrogen, catalog D3922) to confirm stellate cell quiescence. The cell viability following Yoda1 treatment was analyzed using the Live/Dead cell imaging kit (Thermo Fisher Scientific, catalog R37601). RNAs were isolated using the RiboPure Kit (Invitrogen, catalog AM1924) according to manufacturer's instructions.
Fluid shear stress and mechanical pushing applied to stellate cells were achieved as previously described by Wang et al., J. Clin. Invest. 126(12): 4527-4536 (2016). Parallel-plate fluid flow chambers (μ-Slide I 0.4 Luer, or μ-Slide I 0.2 Luer from Ibidi) were used for fluid shear stress experiments. The fluid shear stress (T) was calculated using the formula: τ=η×[…] φ for μ-Slide I 0.4 Luer and τ=η×330.4 φ for μ-Slide I 0.2 Luer, where r represents viscosity of the medium and φ represents flow rate (according to the manufacturer's instructions, Ibidi). Mechanical pushing was achieved by applying a blunt borosilicate glass pipette once to the cell membrane with a deflection of 2-3 μm for 1 second using a micromanipulator (World Precision Instruments).
Calcium 6-QF (Molecular Devices) dye was used for live-cell calcium imaging as described by Romac et al., Nat. Commun. 9(1):1715 (2018). Cells were imaged in HBSS buffer with 2 mM Ca^2+. Faintly and highly fluorescent loaded cells were excluded from analysis. […]

Data set [3] concerns pancreatic acini. The data set is described as follows: CCK-induced [Ca2+]i in pancreatic acini. The class given is cell-based, mouse. Also on record: effect on CCK-induced sustained [Ca2+]i elevation: dose or concentration left out as unconfirmed. The procedure: as §1, §2
The subject of data set [4] is pancreatic acini. The data set is described as follows: Trypsinogen activation in pancreatic acini (BZiPAR). The format is cell-based, mouse. On the procedure:
To visualize Piezo1-induced trypsinogen activation, acini were loaded with active trypsin enzyme substrate BZiPAR (10 μM). Na-HEPES buffer with 2 mM Ca^2+ was used during imaging. A Zeiss Axio observer Z1 with a high-sensitivity EMCCD camera with a ×40/0.75 EC-Plan-NeoFluar DIC objective was used to capture the Z-stack images with stack thickness of 3 μm at an interval of 12 seconds. The BZiPAR fluorescent wavelength Ex/Em was 498/521 nm. BZiPAR was excited at 470-510 nm and emission collected at 495-550 nm. The captured images were analyzed with MetaMorph software (Molecular Devices).

Data set [5] has as its system pancreatic acini. The data set can be described thus: Cell death assays of pancreatic acini (LDH release, Live/Dead, live-cell imaging). The format is cell-based. The procedure: The viability of pancreatic acini with Yoda1 and CCK treatments was analyzed using the Live/Dead Cell Imaging Kit (Thermo Fisher Scientific, catalog R37601) or the LDH Release Assay Kit (Promega, catalog G1780).
For orientation: LDH leaks from cells whose membrane has failed.

Data set [6] concerns pancreatic acini. The data set is described as follows: Mitochondrial depolarization in pancreatic acini (TMRE). The format is cell-based, mouse. On the procedure: Live-cell mitochondrial depolarization was analyzed using the mitochondrial labeling dye, TMRE. Isolated acini were plated on a thin-layered, Matrigel-coated, glass-bottom culture plate with DMEM/F12 and 10% FBS media and placed in a CO2 incubator for 1 hr at 37° C. After 1 hr, the acini were incubated with TMRE (200 nM) in the bath buffer containing 140 mM NaCl, 4.7 mM KCl, 2.0 CaCl2, 1 mM MgCl2, 10 mM HEPES, and 10 mM glucose (pH adjusted to 7.4 with NaOH) for 30 minutes. The TMRE dye was washed and replaced with fresh bath buffer. The images were captured with a Zeiss Axio observer Z1 microscope with MetaMorph software (Molecular Devices) at intervals of 600 ms. TMRE was excited at 540-600 nm and emission collected at 585-675 nm. Carbonyl cyanide 4-(trifluoromethoxy) phenylhydrazone (FCCP), which uncouples the oxidative phosphorylation process and depolarizes mitochondria, was used as a positive control. A maximum of 2 mitochondrial puncta were taken per acinar cell.

T1 sequence (Q9EPK8 whole entry): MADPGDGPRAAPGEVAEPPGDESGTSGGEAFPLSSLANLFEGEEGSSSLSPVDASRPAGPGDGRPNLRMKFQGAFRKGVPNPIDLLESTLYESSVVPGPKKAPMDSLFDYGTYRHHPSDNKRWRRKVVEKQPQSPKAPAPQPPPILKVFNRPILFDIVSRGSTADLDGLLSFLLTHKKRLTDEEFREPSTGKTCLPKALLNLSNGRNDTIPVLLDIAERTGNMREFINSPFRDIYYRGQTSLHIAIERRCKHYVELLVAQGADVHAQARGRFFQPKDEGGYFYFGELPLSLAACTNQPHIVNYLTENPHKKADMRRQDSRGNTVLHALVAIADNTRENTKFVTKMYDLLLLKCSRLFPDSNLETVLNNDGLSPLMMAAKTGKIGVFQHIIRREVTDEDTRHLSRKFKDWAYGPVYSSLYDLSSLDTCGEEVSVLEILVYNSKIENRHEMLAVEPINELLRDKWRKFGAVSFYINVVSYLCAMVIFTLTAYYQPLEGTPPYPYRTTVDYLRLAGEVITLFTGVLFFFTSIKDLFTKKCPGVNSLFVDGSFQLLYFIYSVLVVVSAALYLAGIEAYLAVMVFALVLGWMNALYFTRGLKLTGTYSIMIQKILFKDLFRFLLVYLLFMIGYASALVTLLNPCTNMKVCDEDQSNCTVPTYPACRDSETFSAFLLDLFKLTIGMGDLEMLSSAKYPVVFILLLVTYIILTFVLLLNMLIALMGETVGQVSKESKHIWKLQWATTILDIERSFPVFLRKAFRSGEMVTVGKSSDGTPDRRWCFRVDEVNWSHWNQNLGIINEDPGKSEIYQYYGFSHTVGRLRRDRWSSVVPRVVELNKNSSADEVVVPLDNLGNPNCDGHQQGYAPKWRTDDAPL
T2 sequence (E2JF22 whole entry): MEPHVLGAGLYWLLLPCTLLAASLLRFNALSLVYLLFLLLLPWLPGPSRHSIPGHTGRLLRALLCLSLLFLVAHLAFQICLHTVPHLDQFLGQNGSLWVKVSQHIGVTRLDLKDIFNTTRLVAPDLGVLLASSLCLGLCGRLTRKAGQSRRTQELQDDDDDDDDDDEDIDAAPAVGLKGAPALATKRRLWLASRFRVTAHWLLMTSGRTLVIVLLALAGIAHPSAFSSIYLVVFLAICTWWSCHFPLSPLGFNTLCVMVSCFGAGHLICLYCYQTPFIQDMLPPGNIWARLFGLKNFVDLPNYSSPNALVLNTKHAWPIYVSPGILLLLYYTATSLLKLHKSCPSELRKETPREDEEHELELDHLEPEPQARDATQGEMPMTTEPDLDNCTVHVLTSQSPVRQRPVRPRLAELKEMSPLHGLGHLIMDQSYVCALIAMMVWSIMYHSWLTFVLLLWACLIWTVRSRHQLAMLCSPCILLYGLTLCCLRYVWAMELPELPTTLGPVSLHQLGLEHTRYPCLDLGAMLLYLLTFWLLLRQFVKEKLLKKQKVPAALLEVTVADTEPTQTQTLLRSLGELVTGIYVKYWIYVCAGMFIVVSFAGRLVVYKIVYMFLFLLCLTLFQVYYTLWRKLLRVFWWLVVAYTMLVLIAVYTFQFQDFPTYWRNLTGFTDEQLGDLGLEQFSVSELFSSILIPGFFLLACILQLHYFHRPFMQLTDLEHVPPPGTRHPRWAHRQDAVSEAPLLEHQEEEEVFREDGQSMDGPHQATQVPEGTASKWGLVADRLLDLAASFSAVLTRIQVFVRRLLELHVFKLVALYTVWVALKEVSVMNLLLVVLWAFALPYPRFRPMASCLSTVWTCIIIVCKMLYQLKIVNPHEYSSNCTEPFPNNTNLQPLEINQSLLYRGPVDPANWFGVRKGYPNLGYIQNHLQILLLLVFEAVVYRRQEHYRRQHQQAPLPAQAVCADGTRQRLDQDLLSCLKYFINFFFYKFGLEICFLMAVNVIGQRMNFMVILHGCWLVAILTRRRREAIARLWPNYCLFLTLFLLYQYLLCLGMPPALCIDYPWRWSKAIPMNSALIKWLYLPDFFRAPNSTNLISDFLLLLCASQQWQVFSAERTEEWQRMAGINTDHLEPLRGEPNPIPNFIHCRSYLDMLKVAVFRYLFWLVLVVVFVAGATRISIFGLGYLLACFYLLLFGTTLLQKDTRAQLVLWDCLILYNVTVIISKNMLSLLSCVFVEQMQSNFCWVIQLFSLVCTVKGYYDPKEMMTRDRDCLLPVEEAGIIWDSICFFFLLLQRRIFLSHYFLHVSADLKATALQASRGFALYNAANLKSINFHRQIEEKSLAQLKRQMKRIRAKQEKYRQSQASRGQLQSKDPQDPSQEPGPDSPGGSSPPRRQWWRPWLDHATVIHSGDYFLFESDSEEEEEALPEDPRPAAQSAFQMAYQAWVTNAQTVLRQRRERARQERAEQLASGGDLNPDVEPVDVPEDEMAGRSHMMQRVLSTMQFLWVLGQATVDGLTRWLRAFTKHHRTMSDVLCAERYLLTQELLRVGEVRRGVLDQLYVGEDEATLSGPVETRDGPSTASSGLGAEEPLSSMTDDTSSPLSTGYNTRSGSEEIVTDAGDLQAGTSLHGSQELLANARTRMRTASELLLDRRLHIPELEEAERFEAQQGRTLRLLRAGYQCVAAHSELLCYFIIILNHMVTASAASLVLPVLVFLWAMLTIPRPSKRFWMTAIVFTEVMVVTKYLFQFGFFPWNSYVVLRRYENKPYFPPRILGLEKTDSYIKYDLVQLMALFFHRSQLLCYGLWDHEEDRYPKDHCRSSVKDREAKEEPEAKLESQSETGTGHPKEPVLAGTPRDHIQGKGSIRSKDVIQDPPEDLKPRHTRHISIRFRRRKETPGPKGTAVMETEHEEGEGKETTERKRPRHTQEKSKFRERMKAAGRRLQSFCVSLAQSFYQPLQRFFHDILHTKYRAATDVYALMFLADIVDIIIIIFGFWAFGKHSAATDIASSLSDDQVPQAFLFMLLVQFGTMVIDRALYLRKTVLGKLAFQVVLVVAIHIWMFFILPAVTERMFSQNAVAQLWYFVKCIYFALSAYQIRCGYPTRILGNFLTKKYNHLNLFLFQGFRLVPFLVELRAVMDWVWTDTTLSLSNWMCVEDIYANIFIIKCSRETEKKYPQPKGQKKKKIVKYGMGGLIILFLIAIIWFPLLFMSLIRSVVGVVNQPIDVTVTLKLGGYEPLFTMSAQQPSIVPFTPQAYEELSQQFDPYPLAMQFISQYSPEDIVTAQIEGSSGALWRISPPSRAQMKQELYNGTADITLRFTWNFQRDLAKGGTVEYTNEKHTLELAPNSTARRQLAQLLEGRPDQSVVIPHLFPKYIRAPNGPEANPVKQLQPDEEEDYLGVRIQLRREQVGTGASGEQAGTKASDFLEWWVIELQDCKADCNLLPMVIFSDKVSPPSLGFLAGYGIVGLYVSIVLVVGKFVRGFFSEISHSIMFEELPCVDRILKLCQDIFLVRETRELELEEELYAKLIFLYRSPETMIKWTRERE

Consider `CC(C)NCCN(C(C)C)S(=O)(=O)c1ccc(Cl)cc1Cl` [RN1734], for which the “effect on GSK101 (50 nM)-induced [Ca2+]i increase” value on TRPV4 (HC067 100 nM, RN1734 30 μM) was “inhibited”.
Take `CCCCCCOC(=O)[C@]1(O)C[C@@H]2O[C@@]1(C)n1c3ccccc3c3c4c(c5c6ccccc6n2c5c31)C(=O)NC4` [KT5720]: on Piezo1 [1], the “effect of protein kinase A and C blockers on Yoda1-induced sustained calcium elevation” value is reported as “did not significantly affect the Yoda1-induced sustained calcium elevation”.
As for `CCCCC/C=C\C/C=C\C/C=C\CC1OC1CCCC(=O)O` (stereo not drawn) [5′,6′-EET, 5′,6′-epoxyeicosatrienoic acid], the “agonist effect on [Ca2+]i” value at TRPV4 was “induced significant increases in [Ca^2+]i”.
`CN(C)CCCn1cc(C2=C(c3c[nH]c4ccccc34)C(=O)NC2=O)c2ccccc21` [GF109203X]: the “effect of protein kinase A and C blockers on Yoda1-induced sustained calcium elevation” value at Piezo1 [1] is “did not significantly affect the Yoda1-induced sustained calcium elevation”.
As to `C[C@H](CCC(=O)O)C[C@H](C)C[C@H](C)C(=O)/C=C(\O)[C@H](C)C[C@H](C)C/C=C/[C@@H](C)[C@@H](O)[C@@H](C)[C@@H](O)C[C@@H]1CC[C@@](C)([C@H]2CC[C@@](C)([C@@H](C)O)O2)O1` [ionomycin], on Piezo1 [2] (ionomycin 1 μM, mouse PSCs), the “[Ca2+]i response to ionomycin after Yoda1 (25 μM) treatment” value is listed as “All cells responded”.
`CCCCCCCCCCCC(=O)c1c(O)c(C(=O)CCCCCCCCCCC)c(O)c(C2CC(c3ccc(O)cc3)Oc3cc(O)ccc32)c1O` (stereo not drawn) [YM26734]: the “effect on Yoda1-induced sustained [Ca2+]i elevation, YM26734 and AACOCF3 together” value on Piezo1 [1] (Yoda1 25 μM) is “blocked the Yoda1-induced sustained [Ca^2+]i elevation”. Further, on Piezo1 [1] (YM26734 10 μM, Yoda1 25 μM), the “effect of the secretory PLA2 inhibitor alone on Yoda1-induced sustained [Ca2+]i elevation” value was “substantial and capable of blocking the sustained [Ca^2+]i elevation”. Besides, the “effect on Yoda1-mediated sustained [Ca2+]i elevation, YM26734 and AACOCF3 together” value at Piezo1 [2] was “significantly inhibited the Yoda1-mediated sustained elevation in [Ca^2+]i”.
Take `Cc1cccc(F)c1C(=O)Nc1cnc(-c2cc3c(cc2Cl)OC(F)(F)O3)cn1` [CM4620]: the “effect on Yoda1-induced [Ca2+]i rise” value on Piezo1 [1] (CM4620 5 μM preincubated 1 hr, Yoda1 25 μM) was “did not alter the rise in [Ca^2+]i following Yoda1 stimulation”. Besides, the “effect on CCK-induced sustained [Ca2+]i elevation” value in the data set with pancreatic acini [3] (CM4620 preincubated 1 hr, CCK) was “blocked the sustained elevation in [Ca^2+]i produced by CCK”. In addition, the “completeness of block of CCK-induced [Ca2+]i rise” value in the data set with pancreatic acini [3] (CM4620 preincubated 1 hr, either concentration of CCK, residual calcium wave) is “did not completely block the [Ca^2+]i rise”.
For the molecule `CCCCC/C=C\C/C=C\C/C=C\C/C=C\CCCC(=O)O` [AA, arachidonic acid], the “agonist effect on [Ca2+]i” value at TRPV4 is “induced significant increases in [Ca^2+]i”.
For the molecule `CCCCC/C=C\C/C=C\C/C=C\C/C=C\CCCC(=O)C(F)(F)F` [AACOCF3], at Piezo1 [1] (Yoda1 25 μM), the “effect on Yoda1-induced sustained [Ca2+]i elevation, YM26734 and AACOCF3 together” value was “blocked the Yoda1-induced sustained [Ca^2+]i elevation”. The “effect on Yoda1-mediated sustained [Ca2+]i elevation, YM26734 and AACOCF3 together” value on Piezo1 [2] is “significantly inhibited the Yoda1-mediated sustained elevation in [Ca^2+]i”.
As for “CCK: secretagogue that stimulates pancreatic enzyme secretion by increasing [Ca2+]i”, the “CCK-mediated trypsin activation, WT vs Piezo1aci-KO acini” value in the data set with pancreatic acini [4] (CCK 10 nM) is reported as “similar”. In addition, in the data set with pancreatic acini [4] (Yoda1 50 μM or CCK 10 nM), the “trypsin activation (BZiPAR fluorescence)” value is listed as “activated trypsin in pancreatic acini over time”. Also, the “time to trypsin activation after application” value with pancreatic acini [4] (Yoda1 50 μM, CCK 10 nM) is greater than 20 min. For the same molecule, in the data set on pancreatic acini [5] (CCK 1 nM), the “cell damage (LDH release) in WT vs Piezo1aci-KO acini” value was “produced comparable cell damage”. In addition, the “acinar cell death, both Yoda1 and CCK vs individual application” value in the data set with pancreatic acini [5] (Yoda1 50 μM + CCK 1 nM, WT acini) is given as “acinar cell death was greater”. Besides, the “time to mitochondrial depolarization after application” value with pancreatic acini [6] (Yoda1 50 μM, CCK 10 nM) is greater than 10 min.
In the case of `CC(=O)OCOC(=O)CN(CC(=O)OCOC(C)=O)c1ccccc1OCCOc1ccccc1N(CC(=O)OCOC(C)=O)CC(=O)OCOC(C)=O` [BAPTA-AM], the “effect on Yoda1-induced sustained Ca2+ rise” value on Piezo1 [1] (BAPTA-AM 20 μM preincubated 30 minutes, Yoda1 50 μM) was “abolished the sustained Ca^2+ rise”. For the same molecule, the “effect on CCK-induced [Ca2+]i” value with pancreatic acini [3] (BAPTA-AM 20 μM preincubated 30 minutes, CCK 1 nM) is “completely eliminated the effect of CCK on [Ca^2+]i”. Moreover, in the data set with pancreatic acini [5] (BAPTA-AM preincubated 30 minutes, Yoda1 50 μM), the “effect on Yoda1-induced LDH release” value is “protected pancreatic acini from Yoda1-induced LDH release”. For the same molecule, in the data set on pancreatic acini [6] (BAPTA-AM 20 μM preincubated 20 minutes), the “effect on Yoda1-induced mitochondrial depolarization” value is reported as “protected from Yoda1-induced mitochondrial depolarization”.
